Reference: patent publication US4300011A, “Selective production of aromatics” (Mobil Oil Corporation, priority 1980, dated 1981)

Legend:
[1] = Effective critical dimension from CPK space-filling atomic models; format: physicochemical
Excerpt: The concept of an "effective critical dimension" of a molecule is described by Breck on pages 633 to 641 in Zeolite Molecular Sieves, John Wiley & Sons, Inc. (1974), the entire contents of which are incorporated herein by reference. Generally, this dimension is the smallest dimension that will permit passage through the pores of the zeolite, i.e., the dimension that most nearly approaches the pore size of the zeolite. For example, the critical dimension of n-hexane is the thickness not the length, while the critical dimension for benzene is the cross-sectional diameter, rather than the thickness.
Effective critical dimensions for the purposes of this invention were determined by the use of CPK (Corey-Pauling-Koltun) space-filling atomic models, obtained from Ealing Corporation, Natick, Mass. The following Table illustrates critical dimensions measured from such models with corresponding pKa values for several heterocyclic compounds.

[2] = cited from earlier work; for pKa: from Katritzky, Physical Methods in Heterocyclic Chemistry

Row | SMILES | Effective Critical Dimension [1] [Angstroms] | pKa [2] | relative base strength ([2]; versus 1,10-phenanthroline)
1 | c1cnc2c(c1)ccc1cccnc12 [1,10-Phenanthroline] | 7.5 |  | 
2 | Cc1cc(C)nc(C)c1 [2,4,6-Collidine, 2,4,6-trimethylpyridine] | 7.5 |  | 
3 | Cc1cc(C)c2cccc(C)c2n1 [2,4,8-Trimethylquinoline] | 7.9 | 4.5 | 
4 | Cc1cc(C)c2ccccc2n1 [2,4-Dimethylquinoline] | 7.5 | 5.1 | 
5 | Cc1cccc(C)n1 [2,6-Lutidine] | 6.6 | 6.8 | 
6 | Cc1ccncc1C [3,4-Lutidine, 3,4-dimethylpyridine] | 7.0 | 6.5 | 
7 | Cc1ccnc2c(C)cccc12 [4,8-Dimethylquinoline] | 7.4 |  | 
8 | Cc1ccnc2ccccc12 [4-Methylquinoline] | 7.3 | 5.2 | 
9 | c1ccc2c(c1)ccc1ncccc12 [5,6-Benzoquinoline] | 7.5 |  | slightly stronger base than 1,10-phenanthroline
10 | c1ccc2c(c1)ccc1cccnc12 [7,8-Benzoquinoline] | 7.5 |  | 
11 | c1ccc(-c2ccnc3c2ccc2c(-c4ccccc4)ccnc23)cc1 [Bathophenanthroline, 4,7-diphenyl-1,10-phenanthroline] | 9.5 |  | 
12 | Cc1ccc2ccc3ccc(C)nc3c2n1 [Neocuproine, 2,9-dimethyl-1,10-phenanthroline] | 8.3 |  | 
13 | Cc1nc(C)c(C)c(C)c1C [Pentamethylpyridine] | 7.7 |  | 
14 | c1ccncc1 [Pyridine, reference compound] | 6.2 |  | 
